# Literature values in patent publication US20070111953A1, “Compositions to improve the bioavailability of polymethoxyflavones and tocotrienols for treatment of cardiovascular disease” (KGK Synergize, Inc., priority 2005, published 2007).
# System: acetylated LDL metabolism
structure (smiles),measurement,value
COc1ccc(-c2cc(=O)c3c(OC)c(OC)c(OC)c(OC)c3o2)cc1OC [nobiletin],Inhibition of acetylated LDL metabolism,50-72%
